Test results published in patent US9695168B2 (Incyte Corporation, priority 2014, dated 2017).

Biological target: LSD1 (Homo sapiens (Human), UniProt O60341)
Test: LSD1 Histone Demethylase Biochemical Assay (LANCE LSD1/KDM1A demethylase assay)
Conditions: 1 nM LSD-1 enzyme, 1 hour preincubation at 25° C., 0.4 μM Biotin-labeled Histone H3 peptide substrate
Description: LSD1 Histone Demethylase Biochemical Assay
LANCE LSD1/KDM1A demethylase assay-10 μL of 1 nM LSD-1 enzyme (ENZO BML-SE544-0050) in the assay buffer (50 mM Tris, pH 7.5, 0.01% Tween-20, 25 mM NaCl, 5 mM DTT) were preincubated for 1 hour at 25° C. with 0.8 μL compound/DMSO dotted in black 384 well polystyrene plates. […] Reactions were stopped by addition of 10 μL 1× LANCE Detection Buffer (PerkinElmer CR97-100) supplemented with 1.5 nM Eu-anti-unmodified H3K4 Antibody (PerkinElmer TRF0404), and 225 nM LANCE Ultra Streptavidin (PerkinElmer TRF102) along with 0.9 mM Tranylcypromine-HCl (Millipore 616431). After stopping the reactions plates were incubated for 30 minutes and read on a PHERAstar FS plate reader (BMG Labtech).

## Cc1ccc(-c2c(-c3ccc(F)cc3)cc(OC[C@@H]3CCNC3)c3cncn23)cc1 [Example 2, 6-(4-fluorophenyl)-5-(4-methylphenyl)-8-[(3R)-pyrrolidin-3-ylmethoxy]imidazo[1,5-a]pyridine]
  IC50: 500 to 1000 nM

## N#Cc1ccc(-c2cc(OC[C@@H]3CCNC3)c3cncn3c2-c2ccc(Cl)cc2)cc1 [Example 6, 4-{5-(4-chlorophenyl)-8-[(3R)-pyrrolidin-3-ylmethoxy]imidazo[1,5-a]pyridin-6-yl}benzonitrile]
  IC50: 50 to 100 nM

## N#Cc1ccc(-c2cc(OC[C@@H]3CCNC3)c3cncn3c2-c2cnn(C3CCC3)c2)cc1 [Example 7, 4-{5-(1-cyclobutyl-1H-pyrazol-4-yl)-8-[(3R)-pyrrolidin-3-ylmethoxy]imidazo[1,5-a]pyridin-6-yl}benzonitrile]
  IC50: 50 to 100 nM

## CC(C)(C)OC(=O)N1CC=C(c2c(-c3ccc(C#N)cc3)cc(OC[C@@H]3CCNC3)c3cncn23)CC1 [Example 10, tert-butyl 4-{6-(4-cyanophenyl)-8-[(3R)-pyrrolidin-3-ylmethoxy]imidazo[1,5-a]pyridin-5-yl}-3,6-dihydropyridine-1(2H)-carboxylate]
  IC50: 100 to 500 nM

## N#Cc1ccc(-c2cc(OC[C@@H]3CCNC3)c3cncn3c2-c2ccc(N3CCOCC3)cc2)cc1 [Example 13, 4-{5-(4-morpholin-4-ylphenyl)-8-[(3R)-pyrrolidin-3-ylmethoxy]imidazo[1,5-a]pyridin-6-yl}benzonitrile]
  IC50: 50 to 100 nM

## N#Cc1ccc(-c2cc(OC[C@@H]3CCNC3)c3cncn3c2-c2ccc(CN3CCOCC3)cc2)cc1 [Example 17, 4-{5-[4-(morpholin-4-ylmethyl)phenyl]-8-[(3R)-pyrrolidin-3-ylmethoxy]imidazo[1,5-a]pyridin-6-yl}benzonitrile]
  IC50: 50 to 100 nM

## CN1CCC[C@@H](COc2nc(-c3ccc(C#N)cc3)c(-c3ccc4c(c3)oc(=O)n4C)n3cncc23)C1 [Example 21, 4-(5-(3-methyl-2-oxo-2,3-dihydro-1,3-benzoxazol-6-yl)-8-{[(3R)-1-methylpiperidin-3-yl]methoxy}imidazo[1,5-a]pyrazin-6-yl)benzonitrile]
  IC50: 50 to 100 nM

## CN1CCC[C@@H](COc2nc(-c3ccc(C#N)cc3)c(-c3ccc4c(c3)CC(=O)N4C)n3cncc23)C1 [Example 22, 4-(5-(1-methyl-2-oxo-2,3-dihydro-1H-indol-5-yl)-8-{[(3R)-1-methylpiperidin-3-yl]methoxy}imidazo[1,5-a]pyrazin-6-yl)benzonitrile]
  IC50: 100 to 500 nM

## CN1CCC[C@@H](COc2nc(-c3ccc(C#N)cc3)c(-c3ccc4c(c3)CCC(=O)N4C)n3cncc23)C1 [Example 24, 4-(5-(1-methyl-2-oxo-1,2,3,4-tetrahydroquinolin-6-yl)-8-{[(3R)-1-methylpiperidin-3-yl]methoxy}imidazo[1,5-a]pyrazin-6-yl)benzonitrile]
  IC50: 100 to 500 nM

## CN1CCC[C@@H](COc2nc(-c3ccc(C#N)cc3)c(-c3ccc4c(c3)OCC(=O)N4C)n3cncc23)C1 [Example 25, 4-(5-(4-methyl-3-oxo-3,4-dihydro-2H-1,4-benzoxazin-7-yl)-8-{[(3R)-1-methylpiperidin-3-yl]methoxy}imidazo[1,5-a]pyrazin-6-yl)benzonitrile]
  IC50: 50 to 100 nM

## CN1CCC[C@@H](COc2nc(-c3ccc(C#N)cc3)c(-c3ccc4c(c3)n(C)c(=O)n4C)n3cncc23)C1 [Example 26, 4-(5-(1,3-dimethyl-2-oxo-2,3-dihydro-1H-benzimidazol-5-yl)-8-{[(3R)-1-methylpiperidin-3-yl]methoxy}imidazo[1,5-a]pyrazin-6-yl)benzonitrile]
  IC50: 100 to 500 nM

## CN1CCC[C@@H](COc2nc(-c3ccc(C#N)cc3)c(-c3cnc4c(cnn4C)c3)n3cncc23)C1 [Example 27, 4-[8-{[(3R)-1-methylpiperidin-3-yl]methoxy}-5-(1-methyl-1H-pyrazolo[3,4-b]pyridin-5-yl)imidazo[1,5-a]pyrazin-6-yl]benzonitrile]
  IC50: 50 to 100 nM

## CN1CCC[C@@H](COc2nc(-c3ccc(C#N)cc3)c(-c3ccc4ncccc4c3)n3cncc23)C1 [Example 31, 4-(8-{[(3R)-1-methylpiperidin-3-yl]methoxy}-5-quinolin-6-ylimidazo[1,5-a]pyrazin-6-yl)benzonitrile]
  IC50: 50 to 100 nM

## Cc1nn(C)c2ccc(-c3c(-c4ccc(C#N)cc4)nc(OC[C@@H]4CCCN(C)C4)c4cncn34)cc12 [Example 32, 4-(5-(1,3-dimethyl-1H-indazol-5-yl)-8-{[(3R)-1-methylpiperidin-3-yl]methoxy}imidazo[1,5-a]pyrazin-6-yl)benzonitrile]
  IC50: 50 to 100 nM

## CN1CCC[C@@H](COc2nc(-c3ccc(C#N)cc3)c(-c3ccc4ncsc4c3)n3cncc23)C1 [Example 33, 4-(5-(1,3-benzothiazol-6-yl)-8-{[(3R)-1-methylpiperidin-3-yl]methoxy}imidazo[1,5-a]pyrazin-6-yl)benzonitrile]
  IC50: 50 to 100 nM

## CC(O)CN1CCC[C@@H](COc2nc(-c3ccc(C#N)cc3)c(-c3cnc4c(cnn4C)c3)n3cncc23)C1 (stereo partly drawn) [Example 39, 4-[8-{[(3R)-1-(2-hydroxypropyl)piperidin-3-yl]methoxy}-5-(1-methyl-1H-pyrazolo[3,4-b]pyridin-5-yl)imidazo[1,5-a]pyrazin-6-yl]benzonitrile]
  IC50: 100 to 500 nM

## Cn1ncc2cc(-c3c(-c4ccc(C#N)cc4)nc(OC[C@@H]4CCCN(CC(C)(C)O)C4)c4cncn34)cnc21 [Example 41, 4-[8-{[(3R)-1-(2-hydroxy-2-methylpropyl)piperidin-3-yl]methoxy}-5-(1-methyl-1H-pyrazolo[3,4-b]pyridin-5-yl)imidazo[1,5-a]pyrazin-6-yl]benzonitrile]
  IC50: 50 to 100 nM

## COC(=O)N(C)c1ccc(-c2c(-c3ccc(C#N)cc3)nc(OC[C@@H]3CCCN(C)C3)c3cncn23)cc1 [Example 46]
  IC50: 50 to 100 nM

## COC(=O)N(C)c1ccc(-c2c(-c3ccc(C#N)cc3)nc(OC[C@@H]3CCCN(C)C3)c3cncn23)cn1 [Example 49]
  IC50: 100 to 500 nM

## CN1C(=O)Cc2cc(-c3c(-c4ccc(C#N)cc4)nc(N4CCC(N(C)C)CC4)c4cncn34)ccc21 [Example 52, 4-[8-[4-(dimethylamino)piperidin-1-yl]-5-(1-methyl-2-oxo-2,3-dihydro-1H-indol-5-yl)imidazo[1,5-a]pyrazin-6-yl]benzonitrile]
  IC50: 50 to 100 nM

## CN(C)C1CCN(c2nc(-c3ccc(C#N)cc3)c(-c3cnc4cccnc4c3)n3cncc23)CC1 [Example 55, 4-[8-[4-(dimethylamino)piperidin-1-yl]-5-(1,5-naphthyridin-3-yl)imidazo[1,5-a]pyrazin-6-yl]benzonitrile]
  IC50: 50 to 100 nM

## CN1CCC[C@@H](COc2cc(-c3ccc(C#N)cc3)c(-c3cnc4cccnc4c3)n3cncc23)C1 [Example 59, (R)-4-(8-((1-methylpiperidin-3-yl)methoxy)-5-(1,5-naphthyridin-3-yl)imidazo[1,5-a]pyridin-6-yl)benzonitrile]
  IC50: 100 to 500 nM

## CN1CCC[C@@H](COc2cc(-c3ccc(C#N)cc3)c(-c3cnc4ccoc4c3)n3cncc23)C1 [Example 60, (R)-4-(5-(furo[3,2-b]pyridin-6-yl)-8-((1-methylpiperidin-3-yl)methoxy)imidazo[1,5-a]pyridin-6-yl)benzonitrile]
  IC50: 50 to 100 nM

## CN1CCC[C@@H](COc2cc(-c3ccc(C#N)cc3)c(-c3cnc4c(c3)CCCO4)n3cncc23)C1 [Example 61, (R)-4-(5-(3,4-dihydro-2H-pyrano[2,3-b]pyridin-6-yl)-8-((1-methylpiperidin-3-yl)methoxy)imidazo[1,5-a]pyridin-6-yl)benzonitrile]
  IC50: 50 to 100 nM

## CCN1CCC[C@@H](COc2cc(-c3ccc(C#N)cc3)c(-c3cnc4c(c3)ncn4C)n3cncc23)C1 [Example 66, (R)-4-(8-((1-ethylpiperidin-3-yl)methoxy)-5-(3-methyl-3H-imidazo[4,5-b]pyridin-6-yl)imidazo[1,5-a]pyridin-6-yl)benzonitrile]
  IC50: 50 to 100 nM

## CCN1CCC[C@@H](COc2cc(-c3ccc(C#N)cc3)c(-c3cnc4c(c3)CCCO4)n3cncc23)C1 [Example 68, (R)-4-(5-(3,4-dihydro-2H-pyrano[2,3-b]pyridin-6-yl)-8-((1-ethylpiperidin-3-yl)methoxy)imidazo[1,5-a]pyridin-6-yl)benzonitrile]
  IC50: 50 to 100 nM

## COc1ncc(-c2c(-c3ccc(C#N)cc3)cc(OC[C@@H]3CCCN(C)C3)c3cncn23)cc1N [Example 69, (R)-4-(5-(5-amino-6-methoxypyridin-3-yl)-8-((1-methylpiperidin-3-yl)methoxy)imidazo[1,5-a]pyridin-6-yl)benzonitrile]
  IC50: 50 to 100 nM

## Cc1ncc(-c2c(-c3ccc(C#N)cc3)nc(OC[C@@H]3CCCN(C)C3)c3cncn23)cc1F [Example 88, 4-(5-(5-fluoro-6-methylpyridin-3-yl)-8-{[(3R)-1-methylpiperidin-3-yl]methoxy}imidazo[1,5-a]pyrazin-6-yl)benzonitrile]
  IC50: 50 to 100 nM

## CN(C)C1CCN(c2nc(-c3ccc(C#N)cc3)c(-c3cnc4ccoc4c3)n3cncc23)CC1 [Example 104, 4-(8-(4-(dimethylamino)piperidin-1-yl)-5-(furo[3,2-b]pyridin-6-yl)imidazo[1,5-a]pyrazin-6-yl)benzonitrile]
  IC50: 50 to 100 nM

## CCN1CCC[C@@H](COc2nc(-c3ccc(C#N)cc3)c(-c3ccc4c(c3)CC(=O)N4C)n3cncc23)C1 [Example 110, 4-[8-{[(3R)-1-ethylpiperidin-3-yl]methoxy}-5-(1-methyl-2-oxo-2,3-dihydro-1H-indol-5-yl)imidazo[1,5-a]pyrazin-6-yl]benzonitrile]
  IC50: 50 to 100 nM
